Experimental data as given in PubChem BioAssay AID330 (DTP/NCI, 2004).
Where “and” joins values, the source holds several entries; their conditions need not be identical. Equal values may be shown once. Toxic doses and inconclusive results are not listed. Rule for the calls: active = survival T/C of 150% or more; inactive = T/C below 125% in these data.

System: P388 leukemia ip, CD2F1 mice, survival T/C
Assay: NCI In Vivo Anticancer Drug Screen. Data for tumor model P388 Leukemia (intraperitoneal) in CD2F1 (CDF1) mice
Conditions: endpoint: median survival time, higher = longer survival
In short: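 Mice carrying the transplanted tumor received test compound or vehicle. Survival was recorded in each group, and the value is the treated-group measurement divided by that of the vehicle-treated control group.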

[1] = dose: 50.0 mg/kg/injection, schedule: Q01DX009 (ip), vehicle: saline
[2] = dose: 100.0 mg/kg/injection, schedule: Q01DX009 (ip), vehicle: saline
[3] = dose: 200.0 mg/kg/injection, schedule: Q01DX009 (ip), vehicle: saline
[4] = dose: 100.0 mg/kg/injection, schedule: Q04DX003 (ip), vehicle: saline with Tween-80
[5] = dose: 50.0 mg/kg/injection, schedule: Q01DX005 (ip), vehicle: saline with Tween-80
[6] = dose: 100.0 mg/kg/injection, schedule: Q01DX005 (ip), vehicle: saline with Tween-80
[7] = dose: 3.13 mg/kg/injection, schedule: Q01DX009 (ip), vehicle: saline with Tween-80
[8] = dose: 240.0 mg/kg/injection, schedule: Q01DX005 (ip), vehicle: saline with Tween-80
[9] = dose: 50.0 mg/kg/injection, schedule: Q01DX009 (ip), vehicle: Klucel (hydroxypropylcellulose) (HPC)
[10] = dose: 100.0 mg/kg/injection, schedule: Q01DX009 (ip), vehicle: Klucel (hydroxypropylcellulose) (HPC)
[11] = dose: 200.0 mg/kg/injection, schedule: Q01DX009 (ip), vehicle: Klucel (hydroxypropylcellulose) (HPC)
[12] = dose: 12.5 mg/kg/injection, schedule: Q01DX009 (ip), vehicle: saline with Tween-80
[13] = dose: 25.0 mg/kg/injection, schedule: Q01DX009 (ip), vehicle: saline with Tween-80
[14] = dose: 50.0 mg/kg/injection, schedule: Q01DX009 (ip), vehicle: saline with Tween-80
[15] = dose: 60.0 mg/kg/injection, schedule: Q01DX005 (ip), vehicle: saline with Tween-80
[16] = dose: 120.0 mg/kg/injection, schedule: Q01DX005 (ip), vehicle: saline with Tween-80
[17] = dose: 100.0 mg/kg/injection, schedule: Q01DX009 (ip), vehicle: saline with Tween-80

Measured: T/C

CCOC(=O)C1CC(C)CC1=O (configuration not stated)
inactive: [1] 96 % of control | [2] 98 % of control | [3] 102 % of control

CCN(CCP(c1ccccc1)c1ccccc1)CCP(c1ccccc1)c1ccccc1
inactive: dose: 0.75 mg/kg/injection, schedule: Q04DX003 (ip), vehicle: saline with Tween-80 109 % of control | dose: 1.5 mg/kg/injection, schedule: Q04DX003 (ip), vehicle: saline with Tween-80 109 % of control | dose: 3.0 mg/kg/injection, schedule: Q04DX003 (ip), vehicle: saline with Tween-80 118 % of control | dose: 3.13 mg/kg/injection, schedule: Q04DX003 (ip), vehicle: saline with Tween-80 118 % of control | dose: 6.25 mg/kg/injection, schedule: Q04DX003 (ip), vehicle: saline with Tween-80 118 % of control | [4] 100 % of control and 87 % of control

NCCCCC(C(=O)O)N(C(=O)OCc1ccccc1)C(=O)OCc1ccccc1 (configuration not stated)
inactive: [5] 106 % of control | [6] 101 % of control | dose: 200.0 mg/kg/injection, schedule: Q01DX005 (ip), vehicle: saline with Tween-80 97 % of control

Nc1ccc(/C=C\c2nccc3ccccc23)cc1
inactive: [7] 102 % of control

COc1cc(OC)c(/C=N/NC(=S)NC23CC4CC(CC(C4)C2)C3)c(OC)c1
inactive: dose: 15.0 mg/kg/injection, schedule: Q01DX005 (ip), vehicle: saline with Tween-80 94 % of control | dose: 30.0 mg/kg/injection, schedule: Q01DX005 (ip), vehicle: saline with Tween-80 97 % of control | [8] 89 % of control

CC1(c2ccccn2)OCCO1
inactive: [1] 97 % of control | [2] 104 % of control | [3] 108 % of control

NN(CC(O)COc1ccccc1)C(=O)c1ccccc1O (configuration not stated)
inactive: [9] 108 % of control | [10] 108 % of control | [11] 106 % of control

CC(C)(SSC(C)(C)C1NC(=O)NC1=O)C1NC(=O)NC1=O (configuration not stated)
inactive: dose: 6.25 mg/kg/injection, schedule: Q01DX005 (ip), vehicle: Klucel (hydroxypropylcellulose) (HPC) 102 % of control | dose: 12.5 mg/kg/injection, schedule: Q01DX005 (ip), vehicle: Klucel (hydroxypropylcellulose) (HPC) 99 % of control | dose: 25.0 mg/kg/injection, schedule: Q01DX005 (ip), vehicle: Klucel (hydroxypropylcellulose) (HPC) 98 % of control

[O-][n+]1c(CCl)nc2ccccc2c1-c1ccccc1F
inactive: [12] 103 % of control | [13] 103 % of control | [14] 103 % of control

CC(C)=CCC/C(C)=C/COC(=O)C1C(C=C(C)C)C1(C)C (configuration not stated)
inactive: [1] 100 % of control | [2] 100 % of control | [3] 116 % of control | dose: 400.0 mg/kg/injection, schedule: Q01DX009 (ip), vehicle: saline 101 % of control

CCCCCCCC(=O)Nc1ccccc1CC
inactive: dose: 100.0 mg/kg/injection, schedule: Q04DX003 (ip), vehicle: other 100 % of control | dose: 200.0 mg/kg/injection, schedule: Q04DX003 (ip), vehicle: other 100 % of control | dose: 400.0 mg/kg/injection, schedule: Q04DX003 (ip), vehicle: other 95 % of control

O=C(O)/C(Cl)=C(\Cl)C(=O)Nc1ccccc1C(F)(F)F
inactive: [5] 97 % of control | [6] 103 % of control

COC(=O)c1cc(-c2ccc([N+](=O)[O-])cc2)n2c(N)nnc2n1
inactive: [15] 92 % of control | [16] 86 % of control

CONC(=O)Cc1cccc(OC)c1
inactive: [13] 104 % of control | [14] 114 % of control | [17] 98 % of control

CCC1=C(O)C(=O)C(C)(C)C1=O
inactive: dose: 50.0 mg/kg/injection, schedule: Q01DX005 (ip), vehicle: saline 99 % of control and 101 % of control | dose: 100.0 mg/kg/injection, schedule: Q01DX005 (ip), vehicle: saline 100 % of control and 96 % of control | dose: 200.0 mg/kg/injection, schedule: Q01DX005 (ip), vehicle: saline 90 % of control and 98 % of control

CC(=O)O[C@H]1C(=O)[C@]2(C)[C@@H](OC(C)=O)CC3OC[C@@]3(OC(C)=O)[C@H]2[C@H](OC(=O)c2ccccc2)[C@]2(O)C[C@H](OC(=O)[C@H](O)[C@@H](NC(=O)c3ccccc3)c3ccccc3)C(C)=C1C2(C)C (some centres not stated)
inactive: dose: 2.5 mg/kg/injection, schedule: Q01DX005 (ip), vehicle: DMSO 100 % of control | dose: 5.0 mg/kg/injection, schedule: Q01DX005 (ip), vehicle: DMSO 111 % of control

O=CNc1ccc(/C=C\c2ccnc3ccccc23)cc1
inactive: [7] 109 % of control | dose: 6.25 mg/kg/injection, schedule: Q01DX009 (ip), vehicle: saline with Tween-80 100 % of control | [12] 100 % of control | [13] 91 % of control

S=c1oc2cccc3c2n1CCC3
inactive: [4] 95 % of control | dose: 200.0 mg/kg/injection, schedule: Q04DX003 (ip), vehicle: saline with Tween-80 104 % of control | dose: 400.0 mg/kg/injection, schedule: Q04DX003 (ip), vehicle: saline with Tween-80 100 % of control

O=C1NC(c2cccc3ccccc23)Nc2ccc(O)cc21 (configuration not stated)
inactive: dose: 8.75 mg/kg/injection, schedule: Q01DX005 (ip), vehicle: DMSO 102 % of control | dose: 17.5 mg/kg/injection, schedule: Q01DX005 (ip), vehicle: DMSO 100 % of control | dose: 35.0 mg/kg/injection, schedule: Q01DX005 (ip), vehicle: DMSO 102 % of control | dose: 70.0 mg/kg/injection, schedule: Q01DX005 (ip), vehicle: DMSO 98 % of control | dose: 140.0 mg/kg/injection, schedule: Q01DX005 (ip), vehicle: DMSO 100 % of control

CNC(=O)C1CCCN1C(=O)C(Cl)Cl (configuration not stated)
inactive: [1] 96 % of control | [2] 93 % of control and 96 % of control | [3] 86 % of control and 92 % of control

CCCCCCC(O)CCC(O)CCCCCCCC(=O)O (configuration not stated)
inactive: [14] 103 % of control | [17] 92 % of control | dose: 200.0 mg/kg/injection, schedule: Q01DX009 (ip), vehicle: saline with Tween-80 100 % of control

Oc1ccccc1C=NCCN1CC1.Oc1ccccc1C=NCCN1CC1.[Co+2]
inactive: dose: 4.7 mg/kg/injection, schedule: Q01DX009 (ip), vehicle: saline 103 % of control | dose: 9.4 mg/kg/injection, schedule: Q01DX009 (ip), vehicle: saline 102 % of control | dose: 18.8 mg/kg/injection, schedule: Q01DX009 (ip), vehicle: saline 100 % of control | dose: 37.5 mg/kg/injection, schedule: Q01DX009 (ip), vehicle: saline 100 % of control and 97 % of control

Cc1ncc(CO)n1Cc1ccc(Cl)cc1
inactive: [9] 104 % of control | [10] 99 % of control | [11] 94 % of control

CC1(C)OC(=O)C=C[C@]2(C)[C@H]3CC[C@@]4(C)[C@H](c5ccoc5)C[C@H]5O[C@]54[C@]3(C)C(=O)[C@H](O)[C@@H]12
inactive: dose: 1.25 mg/kg/injection, schedule: Q04DX003 (ip), vehicle: Klucel (hydroxypropylcellulose) (HPC) 91 % of control | dose: 2.5 mg/kg/injection, schedule: Q04DX003 (ip), vehicle: Klucel (hydroxypropylcellulose) (HPC) 96 % of control | dose: 5.0 mg/kg/injection, schedule: Q04DX003 (ip), vehicle: Klucel (hydroxypropylcellulose) (HPC) 94 % of control | dose: 10.0 mg/kg/injection, schedule: Q04DX003 (ip), vehicle: Klucel (hydroxypropylcellulose) (HPC) 98 % of control

NC(=O)C(=O)NNC(=O)CCn1[nH]c(=O)c(Cl)c(Cl)c1=O
inactive: [15] 100 % of control | [16] 103 % of control | [8] 98 % of control

CC(=O)OC(C)(C)/C=C/C(=O)[C@](C)(O)[C@H]1[C@H](O)C[C@@]2(C)[C@@H]3CC=C4[C@@H](C=C(O)C(=O)C4(C)C)[C@]3(C)C(=O)C[C@]12C
inactive: dose: 0.25 mg/kg/injection, schedule: Q01DX009 (ip), vehicle: saline with Tween-80 87 % of control | dose: 1.0 mg/kg/injection, schedule: Q01DX009 (ip), vehicle: saline with Tween-80 91 % of control | dose: 1.0 mg/kg/injection, schedule: Q01DX009 (ip), vehicle: saline 93 % of control | dose: 2.0 mg/kg/injection, schedule: Q01DX009 (ip), vehicle: saline with Tween-80 91 % of control | dose: 2.0 mg/kg/injection, schedule: Q01DX009 (ip), vehicle: saline 94 % of control | dose: 4.0 mg/kg/injection, schedule: Q01DX009 (ip), vehicle: saline with Tween-80 91 % of control | dose: 4.0 mg/kg/injection, schedule: Q01DX009 (ip), vehicle: saline 93 % of control | dose: 8.0 mg/kg/injection, schedule: Q01DX009 (ip), vehicle: saline 93 % of control
